What was measured:
human cells in culture = details: cited from earlier work
[1] = molecular target: T1, HIV-reverse transcriptase (Human immunodeficiency virus type 1 group M subtype B, UniProt P04585); details: read-out: IC50 for inhibition of HIV-reverse transcriptase; cited from earlier work
Molt-4 DNA polymerase a = molecular target: T2, Molt-4 DNA polymerase a (Homo sapiens, UniProt P09884); details: read-out: IC50 for inhibition of Molt-4 DNA polymerase a; cited from earlier work
T2 construct: host or cells: Molt-4
T2 sequence (P09884 whole entry): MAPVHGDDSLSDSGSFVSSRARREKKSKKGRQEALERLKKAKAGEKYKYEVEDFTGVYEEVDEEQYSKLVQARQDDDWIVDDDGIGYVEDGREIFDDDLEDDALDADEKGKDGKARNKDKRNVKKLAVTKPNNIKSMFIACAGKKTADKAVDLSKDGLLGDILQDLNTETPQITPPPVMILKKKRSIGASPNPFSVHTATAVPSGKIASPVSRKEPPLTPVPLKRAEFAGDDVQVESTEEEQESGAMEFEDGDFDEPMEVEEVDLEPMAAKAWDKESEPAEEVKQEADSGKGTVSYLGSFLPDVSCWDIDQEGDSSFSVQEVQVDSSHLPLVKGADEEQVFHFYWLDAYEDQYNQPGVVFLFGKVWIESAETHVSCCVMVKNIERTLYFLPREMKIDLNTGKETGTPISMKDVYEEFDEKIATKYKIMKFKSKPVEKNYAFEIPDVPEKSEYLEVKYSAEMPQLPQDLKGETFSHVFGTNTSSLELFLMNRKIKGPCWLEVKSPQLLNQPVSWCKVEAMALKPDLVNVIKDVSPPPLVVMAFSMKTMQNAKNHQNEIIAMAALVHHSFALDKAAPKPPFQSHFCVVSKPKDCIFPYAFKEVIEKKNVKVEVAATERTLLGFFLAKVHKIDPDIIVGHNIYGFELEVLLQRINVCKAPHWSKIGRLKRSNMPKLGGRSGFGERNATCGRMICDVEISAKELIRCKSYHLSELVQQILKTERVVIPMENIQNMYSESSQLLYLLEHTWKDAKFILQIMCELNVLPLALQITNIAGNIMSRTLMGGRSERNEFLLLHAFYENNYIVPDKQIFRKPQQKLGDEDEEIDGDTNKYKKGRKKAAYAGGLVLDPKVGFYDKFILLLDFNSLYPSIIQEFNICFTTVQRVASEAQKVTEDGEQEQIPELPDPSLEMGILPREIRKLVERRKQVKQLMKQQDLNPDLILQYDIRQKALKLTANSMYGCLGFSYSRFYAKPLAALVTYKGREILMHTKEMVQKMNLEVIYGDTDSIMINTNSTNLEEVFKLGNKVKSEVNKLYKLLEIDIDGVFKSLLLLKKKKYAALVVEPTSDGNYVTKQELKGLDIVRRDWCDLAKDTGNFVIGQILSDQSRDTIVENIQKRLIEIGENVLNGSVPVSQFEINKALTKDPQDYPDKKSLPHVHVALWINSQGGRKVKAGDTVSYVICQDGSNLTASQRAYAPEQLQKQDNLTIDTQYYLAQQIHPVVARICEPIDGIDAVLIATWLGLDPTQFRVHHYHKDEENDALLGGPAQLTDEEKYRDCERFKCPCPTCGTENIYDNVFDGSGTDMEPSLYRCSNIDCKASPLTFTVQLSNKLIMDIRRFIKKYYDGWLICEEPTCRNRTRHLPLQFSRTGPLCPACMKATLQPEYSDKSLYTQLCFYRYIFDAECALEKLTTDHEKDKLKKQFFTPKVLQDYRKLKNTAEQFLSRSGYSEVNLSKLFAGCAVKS
T2 sequence (Q14181 whole entry partner): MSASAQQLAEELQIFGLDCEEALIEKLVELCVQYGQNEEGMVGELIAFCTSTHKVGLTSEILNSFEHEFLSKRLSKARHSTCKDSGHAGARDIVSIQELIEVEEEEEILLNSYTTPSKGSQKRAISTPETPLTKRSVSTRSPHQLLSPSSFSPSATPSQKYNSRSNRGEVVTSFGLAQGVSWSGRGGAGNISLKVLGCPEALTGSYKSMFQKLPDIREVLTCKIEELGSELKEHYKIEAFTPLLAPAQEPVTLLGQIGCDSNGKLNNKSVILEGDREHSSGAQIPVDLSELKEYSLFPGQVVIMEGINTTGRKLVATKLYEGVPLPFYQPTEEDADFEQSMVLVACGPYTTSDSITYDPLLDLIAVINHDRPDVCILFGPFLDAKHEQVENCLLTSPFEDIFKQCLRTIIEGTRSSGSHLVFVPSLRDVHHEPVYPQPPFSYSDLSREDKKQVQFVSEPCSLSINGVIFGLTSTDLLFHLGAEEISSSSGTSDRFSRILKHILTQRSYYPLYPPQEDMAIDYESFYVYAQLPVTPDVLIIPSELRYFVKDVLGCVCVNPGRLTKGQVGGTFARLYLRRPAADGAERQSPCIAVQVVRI
T2 sequence (P49642 whole entry partner): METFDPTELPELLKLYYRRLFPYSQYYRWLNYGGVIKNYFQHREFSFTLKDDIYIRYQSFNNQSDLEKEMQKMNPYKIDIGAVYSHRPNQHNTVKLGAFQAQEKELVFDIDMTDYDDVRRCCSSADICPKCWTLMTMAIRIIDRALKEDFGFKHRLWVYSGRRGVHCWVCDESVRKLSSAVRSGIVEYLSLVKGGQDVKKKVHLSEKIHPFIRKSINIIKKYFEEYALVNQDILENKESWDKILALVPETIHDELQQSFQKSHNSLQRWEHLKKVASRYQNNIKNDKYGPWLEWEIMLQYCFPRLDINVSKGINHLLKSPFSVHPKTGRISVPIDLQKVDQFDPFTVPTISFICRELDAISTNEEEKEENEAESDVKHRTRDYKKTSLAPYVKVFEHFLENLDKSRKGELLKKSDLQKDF
T2 sequence (P49643 whole entry partner): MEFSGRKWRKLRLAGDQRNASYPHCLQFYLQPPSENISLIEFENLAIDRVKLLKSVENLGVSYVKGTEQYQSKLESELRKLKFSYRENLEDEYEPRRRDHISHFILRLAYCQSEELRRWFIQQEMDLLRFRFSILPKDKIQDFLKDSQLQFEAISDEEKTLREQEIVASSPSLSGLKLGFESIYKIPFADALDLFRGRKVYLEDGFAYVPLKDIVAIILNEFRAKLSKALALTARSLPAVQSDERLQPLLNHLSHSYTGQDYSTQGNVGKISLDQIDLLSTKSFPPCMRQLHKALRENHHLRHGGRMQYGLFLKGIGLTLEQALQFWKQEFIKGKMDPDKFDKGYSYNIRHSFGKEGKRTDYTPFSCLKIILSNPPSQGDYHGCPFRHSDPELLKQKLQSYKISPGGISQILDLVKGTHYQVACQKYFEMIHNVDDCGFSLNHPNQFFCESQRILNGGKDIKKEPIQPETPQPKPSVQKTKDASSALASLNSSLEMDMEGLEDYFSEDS

[2] = molecular target: T1, HIV-reverse transcriptase; assay: inhibition of HIV-reverse transcriptase; type: biochemical; details: ratio of IC50 values
Text: Another example of a pyrimidine nucleoside analog as a direct acting antiviral is imidine (dImd), a thymidine analog, [17]. […] Its monophosphate (dIMP) readily incorporated into proviral DNA in place of dTMP, preferentially opposite to adenine (A) in the viral RNA template and caused a decrease in the fidelity of replication at the incorporated sites, due to misincorporation.

**Q.** For `CC(=O)c1cn([C@H]2C[C@H](O)[C@@H](CO)O2)c(=O)[nH]1` [imidine, 1-(2-deoxy-β-D-ribofuranosyl)-4-acetylimidazolin-2-one], which cytotoxicity (human cells in culture) is on record?
**A.** Its cytotoxicity is “no cytotoxicity”.

**Q.** Which IC50 [1] does the source give for `CC(=O)c1cn(C2CC(O)C(COP(=O)(O)OP(=O)(O)OP(=O)(O)O)O2)c(=O)[nH]1` (stereo not shown) [dImdTP] here?
**A.** Its IC50 is 0.038 µM.

**Q.** What about the IC50 (Molt-4 DNA polymerase a) of the same compound?
**A.** The IC50 was 17 µM.

**Q.** What about the “selectivity (HIV-reverse transcriptase vs Molt-4 DNA polymerase a)” value [2] of the same compound?
**A.** Its value is greater than 400 fold.

From patent publication US11618765B2, “Broad-spectrum antiviral nucleoside derivatives” (priority 2020, dated 2023)
